For data set [1], the target named is AT2R (Homo sapiens (Human), UniProt P50052). The data set is described as follows: Binding assay of compounds to AT2R (Tag-lite HTRF ligand binding kit). The conditions noted are these: 1 hour incubation at room temperature. The protocol: The assay was performed in accordance with the instruction manual of Angiotensin AT2 Receptor Ligand Binding Assay Kit (#C1TT1AT2, Cisbio). First, a compound stock solution (10 mM) was diluted in a gradient at a 5× dilution ratio (including 10 concentrations, each with two replicates). 160 nL of compounds at different concentrations was added to a 384-well plate. 40 μL of 1×TLB was added to each well, and the mixture was shaken at room temperature for 15 minutes. 15 mL centrifuge tube added with 5 mL of 1×TLB was prepared in advance. The frozen labeled cells were thawed in a water bath at 37° C. (for 1 to 2 minutes), and the thawed cells were quickly transferred to the above 15 mL centrifuge tube. The mixture was mixed well and centrifuged at 1,000 g at room temperature for 5 minutes. The supernatant was removed, and the cells were resuspended by adding 2.7 mL 1×TLB. A new 384-well plate was taken, and 10 μL of mixed cells were added into the corresponding wells according to the assay design. 5 μL of 4× compound solution and 5 μL of 4× Tag-lite red fluorescent labeled ligand were added to each well. After incubation at room temperature for 1 hour, data were read using EnVision with an HTRF mode. The excitation light intensities at 665 nM and 615 nM in each well were read respectively, and the ratio was calculated (Ratio=A665nMIB615 nM). The IC50 value was calculated by means of GraphPad Prism8 software, where X represents logarithmic value of compound concentration; and Y represents ratio of A665 nM/B615 nM.
Chain of AT2R (P50052 whole entry): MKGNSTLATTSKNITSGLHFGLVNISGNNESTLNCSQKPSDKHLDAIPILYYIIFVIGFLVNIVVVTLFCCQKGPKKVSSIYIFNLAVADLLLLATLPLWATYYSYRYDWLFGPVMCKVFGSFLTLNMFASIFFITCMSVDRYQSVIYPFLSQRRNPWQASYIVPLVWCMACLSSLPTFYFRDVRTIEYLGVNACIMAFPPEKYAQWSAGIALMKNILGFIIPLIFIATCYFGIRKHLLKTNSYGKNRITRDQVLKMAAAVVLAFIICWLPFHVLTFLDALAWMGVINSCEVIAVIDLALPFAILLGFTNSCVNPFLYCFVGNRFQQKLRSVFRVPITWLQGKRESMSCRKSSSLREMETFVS
In general terms: TR-FRET usually uses a lanthanide donor and a delayed reading to cut background.

For data set [2], the target named is CYP1A2 (Homo sapiens (Human), UniProt P05177). The data set is described as follows: CYP inhibition assay in mixed human liver microsomes. The data set is classed as in vitro ADME. The protocol:
(§1) The inhibitory effects of the compounds on seven enzymes, i.e., CYP1A2, CYP2C9, CYP2C19, CYP2D6, CYP3A4 (midazolam), CYP2B6, and CYP2C8, were evaluated at a concentration of 10 μM. Mixed human liver microsomes, which were previously stored in a −80° C. refrigerator before use, were taken out and thawed in a water bath at 37° C. before use, and placed on ice for further operation. 100 μL of microsome working solution was taken, and added with 2 μL of test product or positive inhibitor working solution. 2 μL of solvent was added to the solvent control. The mixture was pre-incubated in a water bath at 37° C. for 10 minutes. After preincubation, 98 μL of NADPH regeneration solution was added to all samples to initiate the reaction. Then, the samples were put back into the water bath and incubated for a period of time. The reaction was quenched with 200 μL of stop solution. The plate was centrifuged at 3,220 g for 10 minutes, 100 μL of supernatant was transferred, and 100 μL of water was added and mixed well to the assay plate for LC/MS/MS analysis.

Data set [3] has as its target CYP2B6 (Homo sapiens (Human), UniProt P20813). The description is as above. Type of data set: in vitro ADME. As to conditions: mixed (pooled) human liver microsomes, read-out: Inhibition rate % CYP2B6. The method, then: as §1
A general note: Liver microsomes are vesicles of endoplasmic reticulum, rich in cytochrome P450 enzymes.

Data set [4] addresses CYP2C19 (Homo sapiens (Human), UniProt P33261). Described as above. The conditions noted are these: mixed (pooled) human liver microsomes, read-out: Inhibition rate % CYP2C19. Type of data set: in vitro ADME. The method, then: as §1
Data set [5] concerns the target CYP2C8 (Homo sapiens (Human), UniProt P10632). Described as above. As to conditions: mixed (pooled) human liver microsomes, read-out: Inhibition rate % CYP2C8. Type of data set: in vitro ADME. The protocol: as §1
The target in data set [6] is CYP2C9 (Homo sapiens (Human), UniProt P11712). The data set is described as above. The conditions noted are these: mixed (pooled) human liver microsomes, read-out: Inhibition rate % CYP2C9. Type of data set: in vitro ADME. The method, then: as §1
Chain of CYP2C9 (P11712 whole entry): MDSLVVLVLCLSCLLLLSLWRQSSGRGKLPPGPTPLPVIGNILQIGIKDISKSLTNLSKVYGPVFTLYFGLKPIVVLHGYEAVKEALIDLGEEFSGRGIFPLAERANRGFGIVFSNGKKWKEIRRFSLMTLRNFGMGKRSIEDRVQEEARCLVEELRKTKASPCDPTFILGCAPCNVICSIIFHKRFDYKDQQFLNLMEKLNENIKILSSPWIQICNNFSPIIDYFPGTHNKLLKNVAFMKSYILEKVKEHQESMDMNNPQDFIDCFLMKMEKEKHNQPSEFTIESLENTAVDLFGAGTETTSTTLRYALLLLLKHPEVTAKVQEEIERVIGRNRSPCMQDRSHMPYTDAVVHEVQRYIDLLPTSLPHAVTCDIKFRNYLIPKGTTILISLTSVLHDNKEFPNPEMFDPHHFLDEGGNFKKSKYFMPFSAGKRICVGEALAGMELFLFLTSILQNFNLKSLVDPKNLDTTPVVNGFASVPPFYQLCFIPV
The target in data set [7] is CYP2D6 (Homo sapiens (Human), UniProt P10635). The description is as above. The data set is classed as in vitro ADME. The conditions noted are these: mixed (pooled) human liver microsomes, read-out: Inhibition rate % CYP2D6. The method, then: as §1
Chain of CYP2D6 (P10635 whole entry): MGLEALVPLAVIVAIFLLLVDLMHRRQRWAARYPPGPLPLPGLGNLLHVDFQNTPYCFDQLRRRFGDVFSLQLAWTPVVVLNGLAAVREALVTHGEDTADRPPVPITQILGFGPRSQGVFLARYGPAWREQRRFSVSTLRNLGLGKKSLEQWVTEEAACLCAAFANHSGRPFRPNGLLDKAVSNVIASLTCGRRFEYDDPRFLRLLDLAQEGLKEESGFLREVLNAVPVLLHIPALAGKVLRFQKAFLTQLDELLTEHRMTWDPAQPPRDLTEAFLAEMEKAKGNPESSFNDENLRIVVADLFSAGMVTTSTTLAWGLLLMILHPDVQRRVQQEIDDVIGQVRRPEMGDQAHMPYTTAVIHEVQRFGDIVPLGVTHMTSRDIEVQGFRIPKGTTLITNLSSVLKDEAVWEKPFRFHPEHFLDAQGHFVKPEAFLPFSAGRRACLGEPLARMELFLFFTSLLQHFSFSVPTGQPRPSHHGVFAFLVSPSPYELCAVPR
The target in data set [8] is CYP3A4 (Homo sapiens (Human), UniProt P08684). The data set is described as above. As to conditions: mixed (pooled) human liver microsomes, probe midazolam, read-out: Inhibition rate % CYP3A4 (midazolam). Type of data set: in vitro ADME. The method, then:
as §1

Data set [9] in a line: Free plasma protein binding (PPB) assay, equilibrium dialysis. Type of data set: in vitro ADME. The conditions noted are these: dialysis 6 hours at 37° C. The protocol:
The dried dialysis membrane was soaked in ultrapure water for 1 hour, then soaked in 20% ethanol for 20 minutes, and then rinsed with ultrapure water for 2 to 3 times. Finally, the dried dialysis membrane was soaked in ultrapure water for 20 minutes for later use. The frozen plasma was thawed in a water bath at 37° C. for about 20 minutes. pH value of the plasma was measured after thawing was complete, and was adjusted to 7.4 with 1% phosphoric acid solution or 0.1M sodium hydroxide solution. […] The pretreated dialysis membrane was assembled into the dialysis plate according to product instructions, and 100 μL of receiving solution (100 mM phosphate buffer solution plus 0.002% Tween 80) was added to one side of the permeable membrane in each dialysis well. 20 μL of each of the final solution of the test compound and the final solution of the control compound were taken in a 96-well sample plate, two duplicate samples were made, and T0 sample was obtained, which was stored in a −20° C. refrigerator. Another 100 μL of each of the above-mentioned final solutions were taken to the other side of the membrane in the dialysis device, two duplicate samples were made, and incubated at 37° C. with constant shaking for 6 hours. After 6 hours of incubation, 20 μL of each of the dialyzed receiving solution and the administered plasma were taken, two duplicate samples were made, and sample A and sample B were obtained. Corresponding blank plasma or receiving solution of corresponding volume were added to sample B and sample A, respectively, allowing the volume ratio of plasma to buffer in each sample well to be 1:1. 300 μL of sample-containing internal standard acetonitrile solution was added to all the sample wells. The mixture was mixed well, and centrifuged at 5,500×g for 10 minutes. 150 μL of corresponding ultrapure water was added to the corresponding sample wells of the 96-well sample plate. 150 μL of the supernatant was taken into the sample wells, and mixed well. Then, LC/MS/MS analysis was performed. The calculation formula of fu is: […]
where: CR: peak area ratio measured in the receiving chamber well CD: peak area ratio measured in the supply chamber well.

Data set [10] can be described thus: Liver microsome stability assay. The data set is classed as in vitro ADME. The conditions noted are these: Human liver microsomes, NADPH, 37° C.; read-out: T1/2 (min) Human. The protocol: The human liver microsome stability assay was performed by co-incubating the compound with human liver microsomes in vitro. The test compounds were first prepared as 10 mM stock solutions in DMSO solvent, and then diluted to 0.5 mM with acetonitrile. Human liver microsomes (Corning) were diluted with PBS to prepare a microsome/buffer solution, and this solution was used to dilute 0.5 mM of the compound to prepare a working solution. In the working solution, a concentration of the compound was 1.5 μM and a concentration of the human liver microsome was 0.75 mg/ml. A deep-well plate was taken, 30 μL of working solution was added to each well of the plate, and then 15 μL of pre-heated NADPH solution (6 mM) was added to start the reaction. The mixture was incubated at 37° C. 135 μL of acetonitrile was added to the corresponding wells to stop the reaction at 0 minute, 5 minutes, 15 minutes, 30 minute, and 45 minutes of incubation. Subsequent to the stop of the reaction by means of acetonitrile at the last time point of 45 minute, the plate was vortexed for 10 minutes (600 rpm/min) and then centrifuged for 15 minutes. […] The peak area ratios of the compound at 5 minutes, 15 minutes, 30 minutes, and 45 minutes were compared with the peak area ratio at 0 minute, and the remaining percentage of the compound at each time point was calculated. T1/2 was calculated using Graphpad8 software.

Data set [11] can be described thus: Liver microsome stability assay. The data set is classed as in vitro ADME. The conditions noted are these: Rat liver microsomes; read-out: T1/2 (min) Rat.
A short description of data set [12]: Liver microsome stability assay. Type of data set: in vitro ADME. The conditions noted are these: Mouse liver microsomes; read-out: T1/2 (min) Mouse.
Data set [13] in a line: Liver microsome stability assay. The data set is classed as in vitro ADME. As to conditions: dog; Canine liver microsomes; read-out: T1/2 (min) Canine.
The mark [14] stands for this setting: dog, pH 7.4, Canine plasma, read-out: fu % Canine.
Where [15] appears, read: pH 7.4, Human plasma, read-out: fu % Human.
[16] abbreviates: pH 7.4, Mouse plasma, read-out: fu % Mouse.
Where [17] appears, read: pH 7.4, Rat plasma, read-out: fu % Rat.

Like-named read-outs stand apart in the source and are kept apart here.

Chain of CYP2C8 (P10632 whole entry): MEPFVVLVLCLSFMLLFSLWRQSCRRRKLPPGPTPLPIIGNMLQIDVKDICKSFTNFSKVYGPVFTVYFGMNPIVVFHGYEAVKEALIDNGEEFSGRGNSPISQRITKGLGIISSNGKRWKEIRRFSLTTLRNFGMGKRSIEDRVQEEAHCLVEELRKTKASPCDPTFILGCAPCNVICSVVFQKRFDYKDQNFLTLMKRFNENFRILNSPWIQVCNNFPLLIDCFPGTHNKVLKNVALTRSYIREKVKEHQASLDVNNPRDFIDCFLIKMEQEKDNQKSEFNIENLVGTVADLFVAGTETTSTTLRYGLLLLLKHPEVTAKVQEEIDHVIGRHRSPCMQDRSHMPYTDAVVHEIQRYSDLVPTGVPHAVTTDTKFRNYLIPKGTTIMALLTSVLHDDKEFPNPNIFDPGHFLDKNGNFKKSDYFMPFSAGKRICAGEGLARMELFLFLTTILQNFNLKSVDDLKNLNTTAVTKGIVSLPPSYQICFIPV
Chain of CYP3A4 (P08684 whole entry): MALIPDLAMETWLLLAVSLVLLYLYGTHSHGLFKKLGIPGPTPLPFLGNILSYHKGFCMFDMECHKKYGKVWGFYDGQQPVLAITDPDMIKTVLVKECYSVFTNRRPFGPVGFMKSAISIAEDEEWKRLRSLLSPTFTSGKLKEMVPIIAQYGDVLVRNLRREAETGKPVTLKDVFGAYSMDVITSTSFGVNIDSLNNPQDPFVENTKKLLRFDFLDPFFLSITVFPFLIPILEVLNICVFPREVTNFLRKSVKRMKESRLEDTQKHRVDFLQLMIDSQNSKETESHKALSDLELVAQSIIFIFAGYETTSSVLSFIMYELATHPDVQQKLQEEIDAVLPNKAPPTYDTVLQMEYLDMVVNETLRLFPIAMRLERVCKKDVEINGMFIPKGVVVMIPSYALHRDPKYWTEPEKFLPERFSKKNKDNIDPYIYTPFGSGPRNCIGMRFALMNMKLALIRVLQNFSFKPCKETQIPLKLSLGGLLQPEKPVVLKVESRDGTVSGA
Chain of CYP1A2 (P05177 whole entry): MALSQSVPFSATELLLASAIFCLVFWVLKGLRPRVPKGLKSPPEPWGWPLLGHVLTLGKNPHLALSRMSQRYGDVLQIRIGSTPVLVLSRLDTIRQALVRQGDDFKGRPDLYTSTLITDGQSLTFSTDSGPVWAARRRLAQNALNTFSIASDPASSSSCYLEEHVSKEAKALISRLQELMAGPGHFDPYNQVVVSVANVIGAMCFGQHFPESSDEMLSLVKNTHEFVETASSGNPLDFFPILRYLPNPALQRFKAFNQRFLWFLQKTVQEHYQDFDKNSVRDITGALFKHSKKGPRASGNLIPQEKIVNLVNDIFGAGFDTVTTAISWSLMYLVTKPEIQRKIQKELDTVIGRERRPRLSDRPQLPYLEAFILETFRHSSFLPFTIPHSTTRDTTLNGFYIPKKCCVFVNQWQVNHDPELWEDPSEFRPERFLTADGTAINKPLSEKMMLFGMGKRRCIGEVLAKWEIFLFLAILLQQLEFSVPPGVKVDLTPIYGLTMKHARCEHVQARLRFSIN
Chain of CYP2B6 (P20813 whole entry): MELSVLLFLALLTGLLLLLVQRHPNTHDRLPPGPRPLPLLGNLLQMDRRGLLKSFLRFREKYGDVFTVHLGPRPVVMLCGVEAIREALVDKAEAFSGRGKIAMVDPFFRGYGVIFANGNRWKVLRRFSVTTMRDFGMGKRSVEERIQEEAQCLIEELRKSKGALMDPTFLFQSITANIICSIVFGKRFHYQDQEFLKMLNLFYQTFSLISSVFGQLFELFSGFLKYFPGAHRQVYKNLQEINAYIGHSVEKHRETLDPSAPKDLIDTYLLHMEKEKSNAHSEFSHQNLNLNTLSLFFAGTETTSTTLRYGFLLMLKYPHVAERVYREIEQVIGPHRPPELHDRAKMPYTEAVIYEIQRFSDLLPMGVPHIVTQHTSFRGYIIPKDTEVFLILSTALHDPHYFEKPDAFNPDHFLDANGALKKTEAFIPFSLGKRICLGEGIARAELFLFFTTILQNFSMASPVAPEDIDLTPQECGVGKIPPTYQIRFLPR
Chain of CYP2C19 (P33261 whole entry): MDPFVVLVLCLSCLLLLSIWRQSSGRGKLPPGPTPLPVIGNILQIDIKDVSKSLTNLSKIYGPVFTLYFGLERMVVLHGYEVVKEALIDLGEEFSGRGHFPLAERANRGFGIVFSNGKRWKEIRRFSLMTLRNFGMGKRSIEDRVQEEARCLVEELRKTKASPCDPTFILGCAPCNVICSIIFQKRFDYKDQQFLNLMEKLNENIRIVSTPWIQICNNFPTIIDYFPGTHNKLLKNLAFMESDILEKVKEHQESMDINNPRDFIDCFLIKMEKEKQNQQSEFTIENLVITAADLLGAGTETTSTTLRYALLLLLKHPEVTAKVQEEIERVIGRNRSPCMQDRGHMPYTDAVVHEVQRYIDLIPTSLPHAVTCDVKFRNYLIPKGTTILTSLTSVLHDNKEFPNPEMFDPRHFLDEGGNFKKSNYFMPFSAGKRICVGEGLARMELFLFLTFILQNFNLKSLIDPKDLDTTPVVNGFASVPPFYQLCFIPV

The compound `COC(=O)NS(=O)(=O)c1sc(CC(C)C)cc1-c1ccc(Cn2ccnc2C)cc1C` [Compound I-11, Methyl (5-isobutyl-3-(2-methyl-4-((2-methyl-1H-imidazol-1-yl)methyl)phenyl)thiophen-2-yl)sulfonylcarbamate] showed an IC50 in [1] of 1.51 nM. In addition, the inhibition at 10 µM was 0% in data set [2]; 27.6% in data set [3]; 11% in [4]; 12.6% in data set [5]; 28.3% in data set [6]; 1.97% in data set [7]. Moreover, in [8], the inhibition at 10 µM turned out to be 13.4%. In addition, the fraction unbound at 6 h, 1 μM in data set [9] (setting [14]) came out at 0.0185; in [9] (setting [15]), 0.0039; in data set [9] (setting [16]), 0.0121; in data set [9] (setting [17]) it was 0.0097.

Compound `CCCCOC(=O)NS(=O)(=O)c1sc(CC(C)C)cc1-c1ccc(Cn2ccnc2C)c(C#N)c1` [Compound I-12, Butyl ((3-(3-cyano-4-((2-methyl-1H-imidazol-1-yl)methyl)phenyl)-5-isobutylthiophen-2-yl)sulfonyl)carbamate] had a half-maximal inhibitory concentration (IC50) in [1] of 1.35 nM. Besides, the inhibition at 10 µM in data set [2] worked out at 4.18%; in data set [3], 31.6%; in data set [4], 30.2%; in data set [5], 39.5%; in [6], 45.8%; in data set [7], 10.4%. For the same compound, the inhibition at 10 µM in [8] was 21.1%.

In data set [1], `COC(=O)NS(=O)(=O)c1sc(CC(C)C)cc1-c1ccc(Cn2ccnc2C(C)(C)C)c(C#N)c1` [Compound I-13, Methyl ((3-(4-((2-(tert-butyl)-1H-imidazol-1-yl)methyl)-3-cyanophenyl)-5-isobutylthiophen-2-yl)sulfonyl)carbamate] had an IC50 of 1.72 nM. Besides, the inhibition at 10 µM was 0.54% in data set [2]; 18.3% in [3]; 11.7% in data set [4]; 82.7% in data set [5]; 20.2% in data set [6]; 6.5% in data set [7]. The inhibition at 10 µM in [8] amounted to 0%. The fraction unbound at 6 h, 1 μM in data set [9] (setting [14]) was 0.0116; in data set [9] (setting [16]), 0.0211; in data set [9] (setting [17]) it was 0.0043.

In turn, `CCc1nccn1Cc1ccc(-c2cc(CC(C)C)sc2S(=O)(=O)NC(=O)OC)cc1C#N` [Compound I-14, Methyl ((3-(3-cyano-4-((2-ethyl-1H-imidazol-1-yl)methyl)phenyl)-5-isobutylthiophen-2-yl)sulfonyl)carbamate] registered an IC50 in [1] of 1.68 nM. The inhibition at 10 µM worked out at 0% in data set [2]; 16.9% in data set [3]; 21.7% in data set [4]; 50.6% in [5]; 32.8% in [6]; 11.4% in data set [7]. Besides, the inhibition at 10 µM in data set [8] stood at 0%. Besides, the fraction unbound at 6 h, 1 μM in data set [9] (setting [16]) was 0.0427.

With `COC(=O)NS(=O)(=O)c1sc(CC(C)C)c(C)c1-c1ccc(Cn2ccnc2C)cc1` [Compound I-16, Methyl (5-isobutyl-4-methyl-3-(4-((2-methyl-1H-imidazol-1-yl)methyl)phenyl)thiophen-2-yl)sulfonylcarbamate], the IC50 in [1] was found to be 2.68 nM. The inhibition at 10 µM in data set [2] is 25%; in [3] it was 11.1%; in data set [4], 35.3%; in data set [5], 33.6%; in data set [6], 46.8%; in [7], 9.54%. In [8], the inhibition at 10 µM came to 6.78%. Also, the figures for the fraction unbound at 6 h, 1 μM in data set [9] (setting [14]), in data set [9] (setting [15]) and in [9] (setting [17]) were 0.0349, 0.0126 and 0.0109, respectively. The half-life at 1 μM stood at 239 min in data set [10], 83.5 min in data set [11], 1730 min in data set [12] and 578 min in data set [13].

In general, IC50 refers to the point on the concentration scale where inhibition reaches its midpoint. As a reminder, the inhibition is the relative decrease from the control value, in per cent.

Source of the values: US20250214978A1, “AT2R AGONIST” (WUHAN HUMANWELL INNOVATIVE DRUG RESEARCH AND DEVELOPMENT …, priority 2022, published 2025).
